Reference: US20150315188A1, “COMPOUNDS AND METHODS FOR TREATMENT OF HYPERTENSION” (MEDIVATION TECHNOLOGIES, INC., priority 2012, published 2015)

Legend:
Design in all cases: purchased Milipore (Millipore)
[1] = target: T1, Human adrenergic α2B receptor (Homo sapiens, UniProt P18089); test: Radioligand binding, adrenergic α2B (Protocol Group B); conditions: Protocol Group B; for Percentage inhibition of ligand binding, Adrenergic α2B (10 nM): 0.01 µM; for Percentage inhibition of ligand binding, Adrenergic α2B (30 nM): 0.03 µM
T1 sequence (P18089 1-450): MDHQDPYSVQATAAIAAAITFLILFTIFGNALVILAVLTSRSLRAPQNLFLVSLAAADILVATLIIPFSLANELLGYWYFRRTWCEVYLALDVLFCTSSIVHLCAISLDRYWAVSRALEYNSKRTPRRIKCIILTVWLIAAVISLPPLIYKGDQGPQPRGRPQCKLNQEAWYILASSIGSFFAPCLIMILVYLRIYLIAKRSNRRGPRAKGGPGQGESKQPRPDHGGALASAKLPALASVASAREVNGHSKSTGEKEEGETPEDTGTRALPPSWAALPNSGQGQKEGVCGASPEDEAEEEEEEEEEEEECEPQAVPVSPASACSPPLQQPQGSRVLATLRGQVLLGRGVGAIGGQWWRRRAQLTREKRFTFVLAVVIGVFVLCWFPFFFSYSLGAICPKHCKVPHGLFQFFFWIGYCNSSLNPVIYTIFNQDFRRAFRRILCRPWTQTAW
Protocol: To evaluate the activity of compounds in radioligand binding assays, Human adrenergic α2B receptor obtained from recombinant cell membrane from Milipore. Binding experiments were carried out in Tris-HCl buffer (50 mM Tris-HCl buffer, pH 7.4, 5 mM Mgcl2, 1 mM Cacl2, 0.2% BSA) as recommended by Milipore. […] Non-specific binding was estimated in the presence of 10 μM Rauwolscine. […] Compounds were screened at various concentrations, using 1% DMSO as vehicle. Biochemical assay results are presented as the percent Inhibition of specific binding in Table B1b, or estimated Ki values in Table B1c.

[2] = target: T2, Human adrenergic α1B receptor (Homo sapiens, UniProt P35368); test: Radioligand binding, adrenergic α1B (Protocol Group B); conditions: Protocol Group B
T2 sequence (P35368 1-520): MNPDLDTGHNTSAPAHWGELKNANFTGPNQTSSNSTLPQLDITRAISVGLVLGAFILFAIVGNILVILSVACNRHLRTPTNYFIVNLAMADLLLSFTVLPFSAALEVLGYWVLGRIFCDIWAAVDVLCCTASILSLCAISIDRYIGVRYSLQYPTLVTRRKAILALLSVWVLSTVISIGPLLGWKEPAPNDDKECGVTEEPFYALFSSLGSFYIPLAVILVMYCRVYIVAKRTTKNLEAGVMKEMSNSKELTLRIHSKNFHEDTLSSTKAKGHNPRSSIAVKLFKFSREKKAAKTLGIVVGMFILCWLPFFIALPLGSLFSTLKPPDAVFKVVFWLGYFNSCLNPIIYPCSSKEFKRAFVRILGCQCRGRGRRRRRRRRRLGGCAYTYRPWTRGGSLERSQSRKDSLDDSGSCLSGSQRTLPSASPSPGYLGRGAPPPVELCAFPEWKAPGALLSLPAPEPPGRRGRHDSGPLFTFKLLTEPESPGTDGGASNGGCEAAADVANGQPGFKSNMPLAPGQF
Protocol: To evaluate the activity of compounds in radioligand binding assays, Human adrenergic α1B receptor obtained from recombinant cell membrane from Milipore. Binding experiments were carried out in Tris-HCl buffer (50 mM Tris-HCl buffer, pH 7.4, 10 mM Mgcl2, 1 mM EDTA) as recommended by Milipore. Compounds were incubated with 0.3 nM [^3H]Prazosin for 60 min at 25° C. Non-specific binding was estimated in the presence of 10 μM prazosin. Receptor proteins were harvested on 0.33% PEI(poly-ethylenemine) soaked GFC filter mat, the specifically bound [^3H]Prazosin were counted to determine total binding. Compounds were screened at various concentrations, using 1% DMSO as vehicle. percent inhibition of specific binding was determined. Biochemical assay results are presented as the percent Inhibition of specific binding in Table B1b, or estimated Ki values in Table B1c.

[3] = target: T3, Human adrenergic α2A receptor (Homo sapiens, UniProt P08913); test: Radioligand binding, adrenergic α2A (Protocol Group B); conditions: Protocol Group B
T3 sequence (P08913 1-465): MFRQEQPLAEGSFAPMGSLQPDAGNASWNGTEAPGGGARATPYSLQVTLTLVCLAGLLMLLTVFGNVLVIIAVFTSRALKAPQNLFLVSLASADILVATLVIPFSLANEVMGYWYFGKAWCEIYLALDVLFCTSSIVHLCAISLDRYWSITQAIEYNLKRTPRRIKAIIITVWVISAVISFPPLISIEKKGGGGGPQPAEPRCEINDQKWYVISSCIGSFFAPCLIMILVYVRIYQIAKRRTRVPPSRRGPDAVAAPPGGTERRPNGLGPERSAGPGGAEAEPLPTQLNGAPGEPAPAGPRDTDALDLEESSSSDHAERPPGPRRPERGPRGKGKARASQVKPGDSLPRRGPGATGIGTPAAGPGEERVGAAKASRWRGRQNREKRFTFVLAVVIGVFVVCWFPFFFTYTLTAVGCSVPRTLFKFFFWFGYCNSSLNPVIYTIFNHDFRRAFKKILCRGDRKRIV
Protocol: To evaluate the activity of compounds in radioligand binding assays, Human adrenergic α2A receptor obtained from recombinant cell membrane from Milipore. Binding experiments were carried out in Tris-HCl buffer (50 mM Tris-HCl buffer, pH 7.4, 5 mM Mgcl2, 1 mM Cacl2, 0.2% BSA) as recommended by Milipore. Compounds were incubated with 2 nM [^3H]MK-912 for 60 min at 25° C. Non-specific binding was estimated in the presence of 10 μM Rauwolscine. Receptor proteins were harvested on 0.33% PEI(poly-ethylenemine) soaked GFC filter mat, the specifically bound [^3H]MK-912 were counted to determine total binding. Compounds were screened at various concentrations, using 1% DMSO as vehicle. percent inhibition of specific binding was determined. Biochemical assay results are presented as the percent Inhibition of specific binding in Table B1b, or estimated Ki values in Table B1c.

| SMILES | Percentage inhibition of ligand binding, Adrenergic α2B (10 nM) ([1]; 10 nM compound) [%] | Percentage inhibition of ligand binding, Adrenergic α2B (30 nM) ([1]; 30 nM compound) [%] | Percentage inhibition of ligand binding, Adrenergic α2B (0.1 μM) ([1]; 0.1 μM compound) [%] | Percentage inhibition of ligand binding, Adrenergic α1B (0.1 μM) ([2]; 0.1 μM compound) [%] | Percentage inhibition of ligand binding, Adrenergic α1B (0.3 μM) ([2]; 0.3 μM compound) [%] | Percentage inhibition of ligand binding, Adrenergic α2A (0.1 μM) ([3]; 0.1 μM compound) [%] | Percentage inhibition of ligand binding, Adrenergic α2A (0.3 μM) ([3]; 0.3 μM compound) [%] | inhibition at 0.01 µM ([1]; 10 nM compound, read-out: Percentage inhibition of ligand binding, Adrenergic α2B (10 nM)) [%] | inhibition at 0.03 µM ([1]; 30 nM compound, read-out: Percentage inhibition of ligand binding, Adrenergic α2B (30 nM)) [%] | inhibition at 0.1 µM ([1]; 0.1 μM compound, read-out: Percentage inhibition of ligand binding, Adrenergic α2B (0.1 μM)) [%] | inhibition at 0.1 µM ([2]; 0.1 μM compound, read-out: Percentage inhibition of ligand binding, Adrenergic α1B (0.1 μM)) [%] | inhibition at 0.3 µM ([2]; 0.3 μM compound, read-out: Percentage inhibition of ligand binding, Adrenergic α1B (0.3 μM)) [%] | inhibition at 0.1 µM ([3]; 0.1 μM compound, read-out: Percentage inhibition of ligand binding, Adrenergic α2A (0.1 μM)) [%] | inhibition at 0.3 µM ([3]; 0.3 μM compound, read-out: Percentage inhibition of ligand binding, Adrenergic α2A (0.3 μM)) [%] |
| --- | --- | --- | --- | --- | --- | --- | --- | --- | --- | --- | --- | --- | --- | --- |
| Cc1ccc2c(c1)c1c(n2CC(C)(O)c2cccnc2)CC2CCCN2C1 (stereo not drawn) [41c] | −8 | −10 | 0 | 1 | −5 | −12 | 1 | – | – | – | – | – | – | – |
| CN1CCc2c(c3c(Cl)ccc(Cl)c3n2CC(O)c2cccnc2)C1 (stereo not drawn) [Compound No. 17, 2-(6,9-dichloro-2-methyl-3,4-dihydro-1H-pyrido[4,3-b]indol-5 (2H)-yl)-1-(pyridin-3-yl)ethanol] | – | – | – | – | – | – | – | 4 | -12 | -13 | 10 | 11 | 10 | 15 |
| Cc1cc2c3c(n(CC(C)(O)c4ccncc4)c2cc1Cl)CCN1CCCC31 (single isomer, unassigned) [50c] | 15 | 42 | 91 | 19 | 43 | 22 | 49 | – | – | – | – | – | – | – |
| CC(O)(Cn1c2c(c3cc(Cl)cc(F)c31)CN1CCCC1C2)c1cccnc1 (single isomer, unassigned) [63a] | 25 | 55 | 84 | 2 | 24 | 3 | 32 | – | – | – | – | – | – | – |
| Cc1ccc2c(c1)c1c(n2CC(OC(N)=O)c2ccncc2)CCN(C)C1 (single isomer, unassigned) [8a] | 12 | 21 | 48 | 18 | 22 | 20 | 14 | – | – | – | – | – | – | – |
| Cc1ccc2c(c1)c1c(n2CC(C)(O)c2ccc(N(C)C)nc2)CCN(C)C1 (single isomer, unassigned) [39b] | 5 | 20 | 32 | 10 | 10 | 6 | 5 | – | – | – | – | – | – | – |
